Data reported in patent publication US20220370486A1, “COMBINATION TREATMENT OF SYSTEMIC FUNGAL INFECTIONS” (The Board of Trustees of the University of Illinois, priority 2019, published 2022).
Read-outs that look alike come from different tables or passages of the source.

What was measured:
[1] = test system: clinically relevant invasive molds; test: Activity against broader panel of invasive molds; assay type: cell-based; conditions: many strains, including pan-azole resistant strain F14196
Excerpt: (§1) In vitro antifungal activity of C2′ epiAmB was compared with that of AmB against an extensive series of Candida and Aspergillus clinical isolates (FIG. 6A) at Evotec (Oxfordshire, UK). […] C2′epiAmB was also sent to the US national Fungus Testing Laboratory at UT-San Antonio for antifungal testing against an extended panel of especially challenging 40 Aspergillus clinical isolates, including azole-resistant A. fumigatus, A. flavus, and A. terreus (FIG. 6B).

yeast cells = test: Antifungal activity after ergosterol pre-complexation of the sponge; assay type: cell-based; conditions: sponge pre-complexed with ergosterol
Excerpt: Anderson, T. M. et al., Nat Chem Biol 2014, 10 (5), 400-6. […] Davis, S. A., et al., Nat Chem Biol 2015, 11 (7), 481-7. To test whether C2′epiAmB primarily kills cells via the same sterol sponge mechanism, the C2′epiAmB sponge was similarly pre-complexed with ergosterol. […] Thus, C2′epiAmB similarly kills yeast primarily via sterol binding, and, by extension, the new compounds targeted in this application are expected to have a similar barrier to fungal resistance that has been observed for the past 50+years with AmB.

Candida albicans SN250 = test: MIC against Candida albicans SN250; assay type: cell-based
[2] = test system: 40 Aspergillus clinical isolates, including azole-resistant A. fumigatus, A. flavus, and A. terreus; test: Antifungal testing, Fungus Testing Laboratory UT-San Antonio; assay type: cell-based
Excerpt: as §1

F. oxysporum SC 1087597 = test: Checkerboard broth microdilution (CLSI); assay type: cell-based; conditions: isolate 1087597
Procedure: (§2) Isolates were tested against varying concentrations of amphotericin B and C2′epiAmB (range, 0.06 to 4 mg/L) and combined with fluconazole (range, 0.12 to 128 mg/L) or ketoconazole (range 0.008 to 8 mg/L) or voriconazole (range, 0.004 to 4 mg/L) using a checkerboard grid design following the Clinical and Laboratory Standards Institute (CLSI) broth microdilution method (M23Ed5).

A. flavus SC 1085986 = test: Checkerboard broth microdilution (CLSI); assay type: cell-based; conditions: isolate 1085986
Procedure: as §2

C. glabrata 1046695 = test: Checkerboard broth microdilution (CLSI); assay type: cell-based; conditions: isolate 1046695; for MIC: single agent
Procedure: as §2

F. solani SC 1047542 = test: Checkerboard broth microdilution (CLSI); assay type: cell-based; conditions: isolate 1047542
Procedure: as §2

C. auris 1081160 = test: Checkerboard broth microdilution (CLSI); assay type: cell-based; conditions: isolate 1081160; for MIC: single agent
Procedure: as §2

C. krusei ATCC 6258 = test: Checkerboard broth microdilution (CLSI); assay type: cell-based; conditions: isolate ATCC 6258
Procedure: as §2

C. tropicalis 1046709 = test: Checkerboard broth microdilution (CLSI); assay type: cell-based; conditions: isolate 1046709
Procedure: as §2

C. krusei 975691 = test: Checkerboard broth microdilution (CLSI); assay type: cell-based; conditions: isolate 975691
Procedure: as §2

[3] = test system: A. fumigatus ATCC MYA-3626; test: Checkerboard broth microdilution (CLSI); assay type: cell-based; conditions: isolate ATCC MYA-3626; for MIC: single agent
Procedure: as §2

C. albicans 967374 = test: Checkerboard broth microdilution (CLSI); assay type: cell-based; conditions: isolate 967374
Procedure: as §2

A. flavus ATCC 204304 = test: Checkerboard broth microdilution (CLSI); assay type: cell-based; conditions: isolate ATCC 204304
Procedure: as §2

C. parapsilosis 1048737 = test: Checkerboard broth microdilution (CLSI); assay type: cell-based; conditions: isolate 1048737; for MIC: single agent
Procedure: as §2

A. fumigatus 1077391 = test: Checkerboard broth microdilution (CLSI); assay type: cell-based; conditions: isolate 1077391
Procedure: as §2

[4] = test system: C. parapsilosis ATCC 22019; test: Checkerboard broth microdilution (CLSI); assay type: cell-based; conditions: isolate ATCC 22019
Procedure: as §2

[5] = test system: Candida and Aspergillus clinical isolates; test: In vitro antifungal activity against clinical isolates (Evotec); assay type: cell-based; conditions: many Candida and several Aspergillus strains
Excerpt: as §1

[6] = rat, in vivo

C[C@@H]1[C@H](O)[C@@H](C)/C=C/C=C/C=C/C=C/C=C/C=C/C=C/[C@H](OC2O[C@H](C)[C@@H](O)[C@H](N)[C@H]2O)CC2O[C@](O)(C[C@@H](O)C[C@@H](O)[C@H](O)CC[C@@H](O)C[C@@H](O)CC(=O)O[C@H]1C)C[C@H](O)[C@H]2C(=O)O (stereo partly drawn) [C2′epiAmB, C2′epi amphotericin B]
non-toxic: toxicity in rats [6]
1 mg/L: MIC when added 1 log2 unit lower of azoles' MIC (C. glabrata 1046695; with ketoconazole) | MIC when added 1 log2 unit lower of azoles' MIC (C. glabrata 1046695; with voriconazole) | MIC when added 1 log2 unit lower of azoles' MIC (C. krusei ATCC 6258; with ketoconazole) | MIC when added 1 log2 unit lower of azoles' MIC (C. krusei ATCC 6258; with voriconazole) | MIC when added 1 log2 unit lower of azoles' MIC (C. tropicalis 1046709; with fluconazole) | MIC when added 1 log2 unit lower of azoles' MIC (C. tropicalis 1046709; with ketoconazole) | MIC when added 1 log2 unit lower of azoles' MIC (C. tropicalis 1046709; with voriconazole) | MIC when added 1 log2 unit lower of azoles' MIC (C. albicans 967374; with ketoconazole) | MIC when added 1 log2 unit lower of azoles' MIC (C. albicans 967374; with voriconazole) | MIC when added 1 log2 unit lower of azoles' MIC (A. flavus ATCC 204304; with voriconazole) | MIC when added 1 log2 unit lower of azoles' MIC (C. parapsilosis 1048737; with fluconazole) | MIC when added 1 log2 unit lower of azoles' MIC ([4]; with fluconazole) | MIC when added 1 log2 unit lower of azoles' MIC ([4]; with voriconazole)
2 µg/mL: MIC (C. glabrata 1046695) | MIC (C. auris 1081160; Candidozyma auris, read-out: MIC) | MIC (C. krusei ATCC 6258; Pichia kudriavzevii, ATCC6258, single agent, read-out: MIC) | MIC (C. krusei 975691; Pichia kudriavzevii, single agent, read-out: MIC) | MIC (C. albicans 967374; Candida albicans, single agent, read-out: MIC) | MIC (A. flavus ATCC 204304; Aspergillus flavus, ATCC204304, single agent) | MIC (C. parapsilosis 1048737) | MIC ([4]; single agent)
good activity: in vitro antifungal activity [5]
2-16 times: less potent than AmB ([2]; range over 40 Aspergillus clinical isolates)
2 mg/L: MIC when added 1 log2 unit lower of azoles' MIC (C. glabrata 1046695; with fluconazole) | MIC when added 1 log2 unit lower of azoles' MIC (C. auris 1081160; with ketoconazole) | MIC when added 1 log2 unit lower of azoles' MIC (C. auris 1081160; with voriconazole) | MIC when added 1 log2 unit lower of azoles' MIC (C. krusei ATCC 6258; with fluconazole) | MIC when added 1 log2 unit lower of azoles' MIC (C. krusei 975691; with fluconazole) | MIC when added 1 log2 unit lower of azoles' MIC (C. krusei 975691; with ketoconazole) | MIC when added 1 log2 unit lower of azoles' MIC (C. krusei 975691; with voriconazole) | MIC when added 1 log2 unit lower of azoles' MIC (C. albicans 967374; with fluconazole) | MIC when added 1 log2 unit lower of azoles' MIC (A. flavus ATCC 204304; with ketoconazole)
5.6 fold: less potent than AmB, average ([2]; average across all 40 strains)
4 µg/mL: MIC (A. flavus SC 1085986; Aspergillus flavus, single agent) | MIC (C. auris 1081160) | MIC [3] | MIC (A. fumigatus 1077391; Aspergillus fumigatus, single agent)
1 µg/mL: MIC (C. glabrata 1046695; Nakaseomyces glabratus, read-out: MIC) | MIC (C. krusei ATCC 6258; single agent) | MIC (C. tropicalis 1046709; Candida tropicalis, single agent) | MIC (C. parapsilosis 1048737; Lodderomyces parapsilosis, read-out: MIC) | MIC ([4]; Lodderomyces parapsilosis, ATCC22019, single agent, read-out: MIC)
0.5 mg/L: MIC when added 1 log2 unit lower of azoles' MIC (C. parapsilosis 1048737; with ketoconazole) | MIC when added 1 log2 unit lower of azoles' MIC (C. parapsilosis 1048737; with voriconazole) | MIC when added 1 log2 unit lower of azoles' MIC ([4]; with ketoconazole)
> 4 µg/mL: MIC (F. oxysporum SC 1087597; Fusarium oxysporum, single agent) | MIC (F. solani SC 1047542; Fusarium solani, single agent) | MIC ([3]; Aspergillus fumigatus, read-out: MIC)
0.06 mg/L: MIC when added 1 log2 unit lower of azoles' MIC (F. oxysporum SC 1087597; with ketoconazole) | MIC when added 1 log2 unit lower of azoles' MIC (F. solani SC 1047542; with ketoconazole) | MIC when added 1 log2 unit lower of azoles' MIC (C. auris 1081160; with fluconazole) | MIC when added 1 log2 unit lower of azoles' MIC ([3]; with ketoconazole) | MIC when added 1 log2 unit lower of azoles' MIC (A. fumigatus 1077391; with ketoconazole)
good antifungal potency: antifungal potency [1]
0.5 µM: MIC (Candida albicans SN250)
>4 mg/L: MIC when added 1 log2 unit lower of azoles' MIC (F. oxysporum SC 1087597; with voriconazole) | MIC when added 1 log2 unit lower of azoles' MIC (A. flavus SC 1085986; with ketoconazole) | MIC when added 1 log2 unit lower of azoles' MIC (A. flavus SC 1085986; with voriconazole) | MIC when added 1 log2 unit lower of azoles' MIC (F. solani SC 1047542; with voriconazole) | MIC when added 1 log2 unit lower of azoles' MIC ([3]; with voriconazole) | MIC when added 1 log2 unit lower of azoles' MIC (A. fumigatus 1077391; with voriconazole)
same reduction in potency: change of potency upon ergosterol pre-complexation (yeast cells)
